# Results published in patent publication US10752596B2, “Nitrogen-containing heteroaryl compound and pharmaceutical use thereof” (JAPAN TOBACCO INC., priority 2017, dated 2020).
# Target: human GLUT9 (Homo sapiens (Human), UniProt Q9NRM0)
# Test: Evaluation of human GLUT9 inhibitory activity ([14C] uric acid uptake in human GLUT9 expressing HEK293T cells transduced with Uricase/Hyper)
# Type: cell-based
# Conditions: human GLUT9 stably expressing HEK293T cells; for IC50: final 300 μM uric acid, 6 min, read-out: humans GLUT9 inhibitory activity (IC50 value (μM)); for inhibition at 10 µM: HEK-293T, 10 μM compound, read-out: GLUT9 inhibitory rate at 10 μM of compound
# Description: A method for measuring GLUT9 inhibitory activity using human GLUT9 expressing cells transduced with Uricase/Hyper is shown hereinafter. GLUT9 inhibitory activity ([…]) of the test compound was calculated based on the intracellular uptake amount of labeled uric acid ([^14C] uric acid) transported by GLUT9.
# 1. Preparation of Human GLUT9 Expression Plasmid
# Human GLUT9S coding region (NM_001001290.1) was amplified by PCR method using PrimeSTAR MAX DNA Polymerase (Takara Bio). The obtained PCR product was subjected to agarose gel electrophoresis, and the desired size of PCR product was purified by QIAquick Gel Extraction Kit (QIAGEN). Next, pEBMulti-Bsd vector (Wako Pure Chemical Industries, Ltd.) was subjected to digestion using restriction enzymes SalI and EcoR V, and linked to the PCR product containing GLUT9S by In-Fusion reaction using In-Fusion HD Cloning Kit (Takara Bio). XL10-Gold Competent Cells (Agilent Technologies) were transformed in In-Fusion reaction solution, and the obtained transfectants were cultured with shaking overnight in LB medium to which Blasticidin S HCl (Thermo Fisher Scientific) was added. Human GLUT9 expression plasmid DNA was prepared from the collected transfectants using EndoFree Plasmid Kit (Takara Bio).
# 2. Establish of Human GLUT9 Stably Expressing Cell
# HEK293T cells (American Type Culture Collection, DS Pharma Biomedical) were seeded in a 6 well plate at 1×10^6 cells/well. Next day, human GLUT9 expression plasmid was transfected by using Lipofectamine 3000 Reagent (Thermo Fisher Scientific) as follows. Lipofectamine 3000 Reagent (5 μL) was diluted with Opti-MEM (125 μL, Thermo Fisher Scientific). Separately, plasmid DNA (2.5 μg) was diluted with Opti-MEM (125 μL), and P3000 Reagent (5 μL) was added thereto. The obtained solution was mixed with the previously obtained diluted solution, and the mixture was left stand at room temperature for 5 min, and added to the cells. Next day, the transfected cells were diluted and reseeded in a 6 well plate at 4×10^5 cells/well, and drug selection was performed in the presence of 30 μg/mL of Blasticidin S HCl, and thereby, Blasticidin-resistant human GLUT9 stably expressing cell line was established. Mock cells were prepared by introducing pEBMulti-Bsd vector into HEK293T cells in a similar manner.
# 3. Preparation of Uricase/Hyper Expression Plasmid
# Uricase/Hyper expression plasmid was prepared by linking the coding regions of Aspergillus Flavus-derived uricase gene and pHyPer-Cyto vector (Evrogen) HyPer gene to the pEBMulti-Hyg vector (Wako Pure Chemical Industries, Ltd.) and then introducing it. The preparation method was performed by reference to Gout and Nucleic Acid Metabolism 2013, 37(2), 93-101, and seven repeated linker sequence of glycine-glycine-glycine-serine was prepared herein.
# 4. Preparation of Human GLUT9-Uricase/Hyper Coexpressing Cell
# Human GLUT9 stably expressing cells were seeded at 3.6×10^7 cells per 225 cm^2 flask. Next day, Uricase/Hyper expression plasmid was transfected by using Lipofectamine 3000 Reagent as follows. Lipofectamine 3000 Reagent (40 μL) was diluted with Opti-MEM (750 μL). Separately, plasmid DNA (20 μg) was diluted with Opti-MEM (750 μL), and P3000 Reagent (40 μL) was added thereto. The obtained solution was mixed with the previously obtained diluted solution, and the mixture was left stand at room temperature for 5 min, and added to the cells. Next day, transfected cells were collected to prepare human GLUT9-Uricase/Hyper coexpressing cells.
# 5. Evaluation of GLUT9 Inhibitory Activity
# Uricase/Hyper transiently-transfected human GLUT9 stably expressing cells or mock cells (blank) were seeded in a 96 well plate (Corning) at 1.6×10^5 cells/well, and cultured overnight at 37° C., 5% CO2. D-MEM/high glucose (Wako Pure Chemical Industries, Ltd.) containing 10% Fetal Bovine Serum (Lifetechnology) and 100 units/ml penicillin/100 μg/ml streptomycin (GIBCO) was used as a medium.
# Chain of human GLUT9 (Q9NRM0 other isoform, or with tags, fused parts or gaps): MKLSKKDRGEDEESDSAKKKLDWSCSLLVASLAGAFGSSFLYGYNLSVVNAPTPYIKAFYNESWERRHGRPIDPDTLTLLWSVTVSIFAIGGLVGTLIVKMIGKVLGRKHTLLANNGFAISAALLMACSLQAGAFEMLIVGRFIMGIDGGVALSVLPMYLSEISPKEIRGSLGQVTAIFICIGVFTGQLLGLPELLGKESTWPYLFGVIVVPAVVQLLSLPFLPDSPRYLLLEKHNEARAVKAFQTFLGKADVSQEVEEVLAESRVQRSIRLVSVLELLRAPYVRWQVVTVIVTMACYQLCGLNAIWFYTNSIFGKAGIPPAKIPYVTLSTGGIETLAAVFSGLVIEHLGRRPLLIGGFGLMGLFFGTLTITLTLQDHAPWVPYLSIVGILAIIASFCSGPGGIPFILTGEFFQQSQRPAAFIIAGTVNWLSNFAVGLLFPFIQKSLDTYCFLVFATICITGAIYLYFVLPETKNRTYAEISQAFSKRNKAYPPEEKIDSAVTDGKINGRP
SMILES,IC50 [µM],inhibition at 10 µM [%]
COc1ccc(-c2ncc(CC(C)C)cc2-c2ccc(C(=O)O)cc2)cc1 [Example 58],0.052,
COc1ccc(-c2ncc(CCCCO)cc2-c2ccc(C(=O)O)cc2)cc1 [Example 51],0.962,
CCCCc1cnc(-c2ccc(C(C)C)cc2)c(-c2ccc(C(=O)O)cc2)n1 [Example 88],0.928,
COc1ccc(-c2ncc(CC3CC3)cc2-c2ccc(C(=O)O)cc2)cc1 [Example 96],0.0887,
COCCCCc1cnc(-c2ccc(OC)cc2)c(-c2ccc(C(=O)O)c(C)c2)c1 [Example 126],0.0497,
COCc1cnc(-c2ccc(OC)cc2)c(-c2ccc(C(=O)O)cc2)c1 [Example 78],2.21,
CCCCc1cnc(-c2ccc(Cl)cc2)c(-c2ccc(C(=O)O)cc2)n1 [Example 31],0.134,
CCCCc1cnc(-c2cc(F)c(OC)c(Cl)c2)c(-c2ccc(C(=O)O)cc2)n1 [Example 64],0.0987,
CCCCc1cnc(-c2ccc(OC)cc2)c(-c2ccc(CCC(=O)O)cc2)n1 [Example 71],0.132,
CCOCCc1cnc(-c2cc(F)c(OC)c(F)c2)c(-c2ccc(C(=O)O)c(C)c2)c1 [Example 141],0.0639,
CCCc1cnc(-c2ccc(OC)cc2)c(-c2ccc(C(=O)O)cc2)n1 [Example 37],0.111,
COCCOCCCc1cnc(-c2ccc(OC)cc2)c(-c2ccc(C(=O)O)cc2)c1 [Example 119],0.501,
COc1ccc(-c2ncc(CCC3CC3)cc2-c2ccc(C(=O)O)cc2)cc1 [Example 52],0.119,
COCCCc1cnc(-c2ccc(OC)c(F)c2)c(-c2ccc(CCC(=O)O)cc2)c1 [Example 108],0.0712,
CCCCc1cnc(-c2ccc(CC#N)cc2)c(-c2ccc(C(=O)O)cc2)n1 [Example 87],1.79,
COCCCCc1cnc(-c2ccc(OC)cc2)c(-c2ccc(C(=O)O)cc2)c1 [Example 123],0.0589,
COCCCc1cnc(-c2cc(F)c(OC)c(F)c2)c(-c2ccc(C(=O)O)c(C)c2)c1 [Example 115],0.0497,
COCCc1cnc(-c2ccc(OC)cc2)c(-c2ccc(C(=O)O)cc2)c1 [Example 102],0.79,
COc1ccc(-c2ncc(CCC3CCCC3)cc2-c2ccc(C(=O)O)cc2)cc1 [Example 63],0.659,
CCCOCc1cnc(-c2ccc(OC)cc2)c(-c2ccc(C(=O)O)c(C)c2)c1 [Example 143],0.125,

SMILES,IC50 [µM],inhibition at 10 µM [%]
CCCCc1cnc(-c2ccc(C(F)(F)F)c(C)c2)c(-c2ccc(C(=O)O)cc2)n1 [Example 26],0.154,
CCCCc1cnc(-c2ccc(O)cc2)c(-c2ccc(C(=O)O)cc2)n1 [Example 33],,28
COCCCCc1cnc(-c2cc(F)c(OC)c(F)c2)c(-c2ccc(C(=O)O)c(Cl)c2)c1 [Example 131],0.155,
CCOCCc1cnc(-c2ccc(OC)cc2)c(-c2ccc(C(=O)O)c(C)c2)c1 [Example 137],0.0917,
COCCCc1cnc(-c2cc(F)c(OC)c(F)c2)c(-c2ccc(C(=O)O)c(Cl)c2)n1 [Example 121],0.501,
CCCCc1cnc(-c2ccc(OC)cc2F)c(-c2ccc(C(=O)O)cc2)n1 [Example 3],0.134,
COCCCCc1cnc(-c2cc(F)c(OC)c(F)c2)c(-c2ccc(C(=O)O)c(Cl)c2)n1 [Example 136],0.25,
COCCCc1cnc(-c2cc(F)c(OC)c(F)c2)c(-c2ccc(C(=O)O)c(C)c2)n1 [Example 109],0.0799,
CCCCc1cnc(-c2ccc(OC)cc2)c(-c2ccc(CCC(=O)O)c(F)c2)n1 [Example 93],0.184,
CCc1cnc(-c2ccc(OC)cc2)c(-c2ccc(C(=O)O)cc2)c1 [Example 56],0.18,
CCCCc1cnc(-c2ccc(C3COC3)cc2)c(-c2ccc(C(=O)O)cc2)n1 [Example 89],1.8,
CCCCc1cnc(-c2cc(F)c(OC)c(F)c2)c(-c2ccc(C(=O)O)cc2)n1 [Example 21],0.0607,
CCCCc1cnc(-c2ccc(C(F)(F)F)c(OC)c2)c(-c2ccc(C(=O)O)cc2)n1 [Example 23],0.992,
COc1ccc(-c2ncc(Cc3ccccc3)cc2-c2ccc(C(=O)O)cc2)cc1 [Example 101],0.164,
CCCCc1cnc(-c2cc(Cl)c(OC)c(Cl)c2)c(-c2ccc(C(=O)O)cc2)n1 [Example 65],0.0946,
CCCCc1cnc(-c2ccc(C(=O)N(C)C)cc2)c(-c2ccc(C(=O)O)cc2)n1 [Example 22],,9
CCCCc1cnc(-c2ccc(C(=O)O)cc2)c(-c2ccc(C(=O)O)cc2)n1 [Example 7],,9
CCOCCc1cnc(-c2cc(F)c(OC)c(F)c2)c(-c2ccc(C(=O)O)c(Cl)c2)c1 [Example 142],0.226,
CCCCc1cnc(-c2ccc(OC)c(C(F)(F)F)c2)c(-c2ccc(C(=O)O)cc2)n1 [Example 19],3.07,
CCCCc1cnc(-c2ccc(OC)cc2)c(-c2cc(F)c(C(=O)O)c(F)c2)n1 [Example 69],0.856,

SMILES,IC50 [µM],inhibition at 10 µM [%]
COCCCc1cnc(-c2cc(F)c(OC)c(F)c2)c(-c2ccc(C(=O)O)c(F)c2)n1 [Example 112],0.561,
COc1ccc(-c2ncc(CCc3ccccc3)cc2-c2ccc(C(=O)O)cc2)cc1 [Example 105],0.453,
CCCCc1cnc(-c2ccc(OC)cc2)c(-c2ccc(C(=O)O)cc2)n1 [Example 1],0.0807,
"CCCOCc1cnc(-c2ccc(OC)cc2)c(-c2ccc(C(=O)O)cc2)c1 [Example 118, 4-(2-(4-methoxyphenyl)-5-(propoxymethyl)pyridin-3-yl)benzoic Acid]",0.108,
CCCCc1cnc(-c2ccc(OC(F)(F)F)cc2)c(-c2ccc(C(=O)O)cc2)n1 [Example 75],0.0844,
CCCCc1cnc(-c2ccc(COC)cc2)c(-c2ccc(C(=O)O)cc2)n1 [Example 86],1.82,
CCCCc1cnc(-c2ccc(CCC)cc2)c(-c2ccc(C(=O)O)cc2)n1 [Example 79],0.369,
COCCCc1cnc(-c2cc(F)c(OC)c(F)c2)c(-c2ccc(CCC(=O)O)cc2)c1 [Example 95],0.0576,
CCCCc1cnc(-c2ccc(C(F)(F)F)c(F)c2)c(-c2ccc(C(=O)O)cc2)n1 [Example 24],0.134,
CCCc1cnc(-c2ccc(C(F)(F)F)cc2)c(-c2ccc(C(=O)O)cc2)n1 [Example 36],0.189,
CCCCc1cnc(-c2ccc(OC)c(C#N)c2)c(-c2ccc(C(=O)O)cc2)n1 [Example 17],0.692,
COc1ccc(-c2ncc(CCCO)cc2-c2ccc(C(=O)O)cc2)cc1 [Example 61],5.59,
"COCCCc1cnc(-c2ccc(OC)cc2)c(-c2ccc(C(=O)O)cc2)c1 [Example 84, 4-(2-(4-methoxyphenyl)-5-(3-methoxypropyl)pyridin-3-yl)benzoic Acid]",0.117,
COCCCCc1cnc(-c2cc(F)c(OC)c(F)c2)c(-c2ccc(C(=O)O)cc2)n1 [Example 35],0.119,
CCCCc1cnc(-c2ccc(OC)c(Cl)c2)c(-c2ccc(C(=O)O)cc2)n1 [Example 16],0.0819,
CCCOCc1cnc(-c2cc(F)c(OC)c(F)c2)c(-c2ccc(CCC(=O)O)cc2)c1 [Example 146],0.139,
COc1c(F)cc(-c2ncc(CC(C)C)nc2-c2ccc(CCC(=O)O)cc2)cc1F [Example 150],0.102,
CCCCc1cnc(-c2ccc(OC)cc2)c(-c2ccc(C(=O)O)c(OC)c2)n1 [Example 6],0.141,
CCCCCCc1cnc(-c2ccc(OC)cc2)c(-c2ccc(C(=O)O)cc2)c1 [Example 100],0.082,
COCCCc1cnc(-c2ccc(OC)c(F)c2)c(-c2ccc(C(=O)O)cc2)c1 [Example 106],0.101,
